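Each compound was tested at five concentrations against cells in 96-well plates for 48 hours. The concentration for 50% growth inhibition is given as GI50.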 The source made the active and inactive calls. No stated cut-off is given here; in the data, active = GI50 up to about 1.1 µM and inactive = higher.

The values that follow come from ChEMBL document CHEMBL1201862, “PubChem BioAssay data set” (2004).

Among the test systems are HCC 2998; MCF7; HT-29; PC-3; OVCAR-3; UACC-257; MDA-N; SN12C; 786-0; SF-539; BT-549; SNB-19; NCI-H23; RXF 393; NCI-H522; MOLT-4; EKVX; SK-MEL-5; CCRF-CEM; T47D.
Holding throughout (assay): NCI tumour cell line growth inhibition, 48 h

For `O=C1C(=C/C=C2/SC(c3ccccc3)(c3ccccc3)c3ccccc32)C(=O)c2ccccc21`, the GI50 is > 100 µM (inactive) in the assay with HCC 2998; > 100 µM (inactive) with MCF7; > 100 µM (inactive) in the assay with HT-29; 80.7 µM (inactive) in the assay with PC-3; > 100 µM (inactive) in the assay on OVCAR-3; > 100 µM (inactive) in the assay with UACC-257. The GI50 with MDA-N, with SN12C, in the assay with 786-0, in the assay on SF-539, with BT-549 and with SNB-19 was > 100 µM (inactive) in each case. The GI50 in the assay on NCI-H23, in the assay with RXF 393, with NCI-H522, in the assay on MOLT-4, with EKVX and in the assay with SK-MEL-5 was > 100 µM (inactive) throughout.

With `c1ccc(CN2CCC3(CC2)SSC2(CCN(Cc4ccccc4)CC2)S3)cc1`, the GI50 with HCC 2998 was 26.9 µM (inactive); in the assay with HT-29, 17.6 µM (inactive); in the assay on PC-3, > 100 µM (inactive); in the assay on OVCAR-3, 76.4 µM (inactive); with CCRF-CEM it was 65.9 µM (inactive); in the assay on UACC-257 it was 26.7 µM (inactive). Also, the GI50 with MDA-N was 44.7 µM (inactive); in the assay with SN12C, 87.1 µM (inactive); in the assay on 786-0, > 100 µM (inactive); in the assay with SF-539, > 100 µM (inactive); in the assay with BT-549 it was > 100 µM (inactive); in the assay on NCI-H23, 30.1 µM (inactive). The GI50 in the assay on MOLT-4 was > 100 µM (inactive).

In the case of `C[C@]12CC(c3ccccc3O1)C(C(=O)NC13CC4CC(CC(C4)C1)C3)C(=O)N2` (some centres undefined), the GI50 in the assay on HCC 2998 is 29 µM (inactive); with MCF7, 39.5 µM (inactive); in the assay on HT-29, 16.1 µM (inactive); with PC-3, 32.1 µM (inactive); with OVCAR-3 it was 44.9 µM (inactive); in the assay on CCRF-CEM, 20 µM (inactive). Also, the GI50 in the assay on UACC-257 was 35.7 µM (inactive); with MDA-N, 18.1 µM (inactive); in the assay on 786-0 it was 18.3 µM (inactive); in the assay on BT-549, 28.1 µM (inactive); in the assay on SNB-19 it was 23.4 µM (inactive); with NCI-H23, 23.7 µM (inactive). Also, the GI50 was 25.6 µM (inactive) in the assay on RXF 393; 39 µM (inactive) in the assay with NCI-H522; 12 µM (inactive) in the assay with MOLT-4; 0.249 µM (active) with EKVX; 17.9 µM (inactive) in the assay with SK-MEL-5.

As to `NC1=Nc2ccccc2Sc2nncn21`, the GI50 in the assay on HCC 2998, in the assay on MCF7, in the assay with HT-29, with PC-3, in the assay with OVCAR-3 and with CCRF-CEM was > 100 µM (inactive) throughout. Further, the GI50 with UACC-257, with SN12C, in the assay with T47D, in the assay with 786-0, with SF-539 and with BT-549 was > 100 µM (inactive) in each case. The GI50 with SNB-19 is > 100 µM (inactive); in the assay on NCI-H23, > 100 µM (inactive); with RXF 393 it was > 100 µM (inactive); in the assay on NCI-H522, 77.6 µM (inactive); with MOLT-4, > 100 µM (inactive); in the assay with EKVX, > 100 µM (inactive). Moreover, the GI50 with SK-MEL-5 is > 100 µM (inactive).

Consider `O=[N+]([O-])C(=C(N1CCOCC1)N1CCOCC1)/C(Cl)=C(\Cl)Br`, for which the GI50 is > 100 µM (inactive) in the assay with HCC 2998; > 10 µM (inactive) with MCF7; 26.8 µM (inactive) in the assay on HT-29; 35 µM (inactive) in the assay on PC-3; 14.5 µM (inactive) in the assay with OVCAR-3; 2.65 µM (inactive) with CCRF-CEM. In addition, the GI50 in the assay with UACC-257 is 17.3 µM (inactive); with MDA-N, 26.4 µM (inactive); in the assay on SN12C it was 17 µM (inactive); with T47D, 15.7 µM (inactive); in the assay on 786-0 it was 25.4 µM (inactive); in the assay on SF-539, 24.3 µM (inactive). Also, the GI50 in the assay with BT-549 was 13.3 µM (inactive); with SNB-19 it was > 100 µM (inactive); with NCI-H23, 17.3 µM (inactive); in the assay with NCI-H522 it was 2.41 µM (inactive); in the assay on MOLT-4, 15.3 µM (inactive); in the assay with EKVX it was 17.1 µM (inactive).

In the case of `COc1ccc(-c2cn3c(nc4ccccc43)c(/C=C/c3cccs3)n2)cc1`, the GI50 was 49.5 µM (inactive) in the assay with HCC 2998; 15 µM (inactive) in the assay on MCF7; 29.8 µM (inactive) with HT-29; 21.6 µM (inactive) with OVCAR-3; 62.7 µM (inactive) in the assay with UACC-257; 7.53 µM (inactive) in the assay on MDA-N. Besides, the GI50 is > 100 µM (inactive) with SN12C; 43.2 µM (inactive) in the assay on T47D; 71.3 µM (inactive) in the assay with 786-0; 89.7 µM (inactive) with SF-539; 63 µM (inactive) with BT-549; 92.3 µM (inactive) in the assay on SNB-19. In addition, the GI50 was 33.8 µM (inactive) with NCI-H23, > 100 µM (inactive) in the assay with RXF 393 and 15.8 µM (inactive) with SK-MEL-5.

For `COP(=O)(OC)C12CCOCCN1c1ccccc1C2=O` (centres undefined), the GI50 with HCC 2998, in the assay with MCF7, in the assay with HT-29, in the assay with PC-3, with OVCAR-3 and in the assay with CCRF-CEM was > 100 µM (inactive) throughout. Besides, the GI50 with UACC-257, in the assay with MDA-N, in the assay with SN12C, in the assay with T47D, with 786-0 and in the assay on SF-539 was > 100 µM (inactive) each time. For the same molecule, the GI50 with BT-549, in the assay with SNB-19, in the assay with NCI-H23, with NCI-H522, in the assay on MOLT-4 and with EKVX was > 100 µM (inactive) in each case. Besides, in the assay on SK-MEL-5, the GI50 was > 100 µM (inactive).

On to `NC1CC(Cl)c2c(Cl)sc(Cl)c21` (centres undefined), for which the GI50 was 53.2 µM (inactive) with HCC 2998; > 100 µM (inactive) with MCF7; > 100 µM (inactive) in the assay on HT-29; > 100 µM (inactive) with OVCAR-3; 34 µM (inactive) with CCRF-CEM; > 100 µM (inactive) in the assay on UACC-257. For the same molecule, the GI50 in the assay with MDA-N, with SN12C, in the assay on T47D, in the assay with 786-0, in the assay on SF-539 and in the assay on BT-549 was > 100 µM (inactive) in each case. Besides, the GI50 in the assay on NCI-H23 is > 100 µM (inactive); in the assay with RXF 393, 14.2 µM (inactive); with NCI-H522 it was < 0.01 µM (active); in the assay on MOLT-4, > 100 µM (inactive); in the assay on EKVX it was > 100 µM (inactive); in the assay on SK-MEL-5 it was > 100 µM (inactive).

For the molecule `Cc1nn(C(=O)Cc2ccccc2)c2c1C(c1ccc([N+](=O)[O-])cc1)SC(=N)N2` (centres undefined), the GI50 with HCC 2998, with MCF7, in the assay on HT-29, in the assay on PC-3, in the assay on CCRF-CEM and in the assay on UACC-257 was > 100 µM (inactive) in each case. In addition, the GI50 in the assay on MDA-N, in the assay on SN12C, in the assay on T47D, with 786-0, in the assay on SF-539 and with BT-549 was > 100 µM (inactive) each time. Further, the GI50 with NCI-H23, in the assay on NCI-H522, with MOLT-4, in the assay on EKVX and with SK-MEL-5 was > 100 µM (inactive) throughout.

`CN1c2ccccc2C2=C(c3ccccc3)CC[C@@H](C(=O)N3C4CC5CC[C@@]4(CS3(=O)=O)C5(C)C)[C@@H]21` (some centres undefined): the GI50 was > 100 µM (inactive) with MCF7; > 100 µM (inactive) with HT-29; 4.1 µM (inactive) in the assay with PC-3; > 100 µM (inactive) in the assay with OVCAR-3; > 100 µM (inactive) in the assay with CCRF-CEM; > 100 µM (inactive) in the assay on UACC-257. The GI50 in the assay on MDA-N, in the assay on SN12C, with T47D, in the assay with 786-0, with SF-539 and in the assay with BT-549 was > 100 µM (inactive) throughout. In addition, the GI50 in the assay on SNB-19 is > 100 µM (inactive); in the assay on NCI-H23, > 100 µM (inactive); in the assay with NCI-H522, 92.3 µM (inactive); in the assay with MOLT-4 it was 4.58 µM (inactive); in the assay on EKVX, > 100 µM (inactive); in the assay on SK-MEL-5, > 100 µM (inactive).

Regarding `O=[N+]([O-])c1ccc(/N=N/c2c(O)ccc3cc(S(=O)(=O)O)ccc23)cc1`, the GI50 in the assay on HT-29, in the assay with PC-3, with OVCAR-3, in the assay with CCRF-CEM, in the assay with UACC-257 and in the assay on MDA-N was > 100 µM (inactive) throughout. The GI50 with SN12C, with T47D, in the assay with 786-0, in the assay with BT-549, in the assay on SNB-19 and in the assay on NCI-H23 was > 100 µM (inactive) throughout. Besides, the GI50 with RXF 393, in the assay with NCI-H522, in the assay on MOLT-4, in the assay on EKVX and in the assay on SK-MEL-5 was > 100 µM (inactive) throughout.
